Measurements: patent US20260167638A1, “PHARMACEUTICAL COMPOUND, SALTS THEREOF, FORMULATIONS THEREOF, AND METHODS OF MAKING AND USING SAME” (Genentech, Inc., priority 2018, published 2026)

What was measured:
[1] = Solubility in pure water at 25° C. with PXRD of solid residues; assay type: physicochemical
Procedure: Using a similar strategy as described above, these salts were prepared by evaporation from a solution of free base and acid in a solvent (e.g., methanol-dichloromethane 1:1, ethyl acetate-dichloromethane 1:2, isopropanol, and the like). If necessary, an amorphous salt produced in this way was crystallized by stirring the amorphous material in an appropriate solvent (e.g., ethyl acetate, acetonitrile, and the like).

[2] = Thermal stability of salt; assay type: physicochemical
Excerpt: It was produced in a crystalline form that was easy to dry, as the residual solvent content of the obtained sample was low. The particle size distribution and crystal habits found were acceptable.

## Cn1cc(-c2cn(-c3ccc(OC(F)(F)F)cc3)c(=O)c3ncn(C)c23)cn1.O=S(=O)(O)O [mono-sulfate crystalline]
[1]; Table 5: free base and crystalline salt forms
  Solubility (24 hours): 1.54 mg/mL
[1]; pH of solubility sample, pure water, 25° C., 24 hours
  pH (24 hrs): 1.2
[1]; pH of solubility sample, pure water, 25° C., one hour
  pH (1 hr): 1.1
[1]; pure water, 25° C., 24 hours equilibration
  S 24 hrs: 1.54 mg/mL
[1]; pure water, 25° C., one hour
  S 1 hr: 1.73 mg/mL
[2]
  thermal stability: good thermal stability
